Source: US9040712B2, “Thiadiazole analogs thereof and methods for treating SMN-deficiency-related-conditions” (NOVARTIS AG, priority 2013, dated 2015)
Counter-ions that a name gives are not always drawn.

System: SMN protein
Assay: cellular SMN ELISA (SMN protein elevation)
Assay type: cell-based
Conditions: myoblast cell line derived from SMNdelta7 mouse model; 24 hours compound treatment; concentration range 100 pM-10 uM
Procedure: A cellular SMN ELISA was used to measure the effects of low molecular weight compounds on SMN protein elevation. Cells from a myoblast cell line derived from the SMNdelta7 mouse model (kind gift from Steve Burden, NYU) were seeded into a 384-well plate at a density of 3000 cells/well and treated with compounds for 24 hours. ELISA capture plates were prepared by coating 384-well plates (Immulon 4HBX) with 0.5 ug/mL of anti-SMN mAb (BD Science, Catalog number 610647) at 4° C. overnight. The plates were washed 5 times with 110 uL of PBS-Tween (0.05% Tween-20, PBST), blocked with 100 uL of 1% BSA in PBST for 2 hours and washed (5 times) with 100 uL of PBST. After 24 hours of compound treatment cells were lysed in a modified RIPA-buffer, on ice for 1 hour. 20 uL of lysate and 20 uL of 1% BSA were then added to the ELISA capture plates and incubated at 4° C. overnight. Plates were washed (5 times) with PBST and then incubated with 1:100 dilution of primary rabbit anti-SMN polyclonal antibody (Santa cruz, Catalog number SC-15320) at room temperature for 1 hour and subsequently washed (5 times) with 110 uL of PBST. This was followed by addition of 1:100 Goat anti-Rabbit IgG-HRP linked (Cell Signaling, Catalog number 7074) secondary antibody for 1 hour. Plates were then washed with PBST and incubated with 40 uL TMB substrate (Cell Signaling, Catalog number 7004L) at room temperature for 1-10 minutes with shaking. The reaction was stopped by addition of 40 uL of stop solution (Cell signaling, Catalog number 7002L) and absorption was measured at 450 nm. Data was reported as fold activation over DMSO control and EC50. ELISA assay condition: compound concentration range 100 pM-10 uM.

Compound	EC50	SMN Activity Fold (fold activation over DMSO control)
Cn1cc(-c2ccc(-c3nnc(NC4CC(C)(C)NC(C)(C)C4)s3)c(Cl)c2)cn1 [Example 27, 5-(2-chloro-4-(1-methyl-1H-pyrazol-4-yl)phenyl)-N-(2,2,6,6-tetramethylpiperidin-4-yl)-1,3,4-thiadiazol-2-amine]	193 nM	2.48 fold
Cn1cc(-c2ccc(-c3nnc(OC4CC(C)(C)NC(C)(C)C4)s3)c(Cl)c2)cn1 [Example 43, 2-(2-chloro-4-(1-methyl-1H-pyrazol-4-yl)phenyl)-5-((2,2,6,6-tetramethylpiperidin-4-yl)oxy)-1,3,4-thiadiazole]	446 nM	2.28 fold
COc1cc(-c2cccnc2)ccc1-c1nnc(N(C)C2CC(C)(C)NC(C)(C)C2)s1 [Example 75, 5-(2-methoxy-4-(pyridin-3-yl)phenyl)-N-methyl-N-(2,2,6,6-tetramethylpiperidin-4-yl)-1,3,4-thiadiazol-2-amine]	235 nM	2.44 fold
COc1cc2ccccc2cc1-c1nnc(N(C)C2CC(C)(C)NC(C)(C)C2)s1 [Example 4, 5-(3-Methoxynaphthalen-2-yl)-N-methyl-N-(2,2,6,6-tetramethylpiperidin-4-yl)-1,3,4-thiadiazol-2-amine]	887 nM	2.48 fold
CN(c1nnc(-c2ccc(-c3cnn(C)c3)cn2)s1)C1CC(C)(C)NC(C)(C)C1 [Example 42, N-methyl-5-(5-(1-methyl-1H-pyrazol-4-yl)pyridin-2-yl)-N-(2,2,6,6-tetramethylpiperidin-4-yl)-1,3,4-thiadiazol-2-amine. Hydrochloride salt]	675 nM	2.32 fold
COc1cc(-c2cn[nH]c2)cc(F)c1-c1nnc(N2C[C@H]3CN(C)C[C@H]3C2)s1 [Example 62, 2-(2-fluoro-6-methoxy-4-(1H-pyrazol-4-yl)phenyl)-5-((3aR,6aS)-5-methylhexahydro-pyrrolo[3,4-c]pyrrol-2(1H)-yl)-1,3,4-thiadiazole]	3640 nM	2.01 fold
COc1ccc2c(c1)CCN(c1nnc(N(C)C3CC(C)(C)NC(C)(C)C3)s1)C2=O [Example 64, 6-methoxy-2-(5-(methyl(2,2,6,6-tetramethylpiperidin-4-yl)amino)-1,3,4-thiadiazol-2-yl)-3,4-dihydroisoquinolin-1(2H)-one]	1620 nM	2.51 fold
CN(c1nnc(-c2ccc(-n3cccn3)cc2O)s1)C1CC(C)(C)NC(C)(C)C1 [Example 87, 2-(5-(methyl(2,2,6,6-tetramethylpiperidin-4-yl)amino)-1,3,4-thiadiazol-2-yl)-5-(1H-pyrazol-1-yl)phenol]	171 nM	2.76 fold
CN(c1nnc(-c2ncc(-c3cn[nH]c3)cc2F)s1)C1CC(C)(C)NC(C)(C)C1 [Example 55, 5-(3-fluoro-5-(1H-pyrazol-4-yl)pyridin-2-yl)-N-methyl-N-(2,2,6,6-tetramethylpiperidin-4-yl)-1,3,4-thiadiazol-2-amine]	1010 nM	2.75 fold
COc1cc(-c2ccn(C)c(=O)c2)ccc1-c1nnc(OC2CC(C)(C)NC(C)(C)C2)s1 [Example 38, 4-(3-methoxy-4-(5-((2,2,6,6-tetramethyl-piperidin-4-yl)oxy)-1,3,4-thiadiazol-2-yl)phenyl)-1-methylpyridin-2(1H)-one]	1520 nM	2.12 fold
COc1cc(-c2ccc(O)nc2)ccc1-c1nnc(N(C)C2CC(C)(C)NC(C)(C)C2)s1 [Example 9, 5-(3-Methoxy-4-(5-(methyl(2,2,6,6-tetramethyl-piperidin-4-yl)amino)-1,3,4-thiadiazol-2-yl)phenyl)pyridin-2-ol]	784 nM	2.46 fold
CN(c1nnc(-c2ccc(-c3cnn(C)c3)cc2O)s1)C1CC(C)(C)NC(C)(C)C1 [Example 15, 2-(5-(Methyl(2,2,6,6-tetramethylpiperidin-4-yl)amino)-1,3,4-thiadiazol-2-yl)-5-(1-methyl-1H-pyrazol-4-yl)phenol]	32 nM	3.14 fold
CN(c1nnc(-c2cc(-n3cccn3)ccc2O)s1)C1CC(C)(C)NC(C)(C)C1 [Example 24, 2-(5-(Methyl(2,2,6,6-tetramethylpiperidin-4-yl)amino)-1,3,4-thiadiazol-2-yl)-4-(1H-pyrazol-1-yl)phenol]	987 nM	2.28 fold
CN(c1nnc(-c2c(O)cc(-c3ccn(C)c(=O)c3)cc2OC(F)(F)F)s1)C1CC(C)(C)NC(C)(C)C1 [Example 60, 4-(3-hydroxy-4-(5-(methyl(2,2,6,6-tetra-methylpiperidin-4-yl)amino)-1,3,4-thiadiazol-2-yl)-5-(trifluoromethoxy)phenyl)-1-methylpyridin-2(1H)-one]	53 nM	2.69 fold
CN1C[C@@H]2CN(c3nnc(-c4ccc(-n5ccnc5)cc4Cl)s3)C[C@@H]2C1 [Example 70, 2-(2-chloro-4-(1H-imidazol-1-yl)phenyl)-5-((3aR,6aS)-5-methylhexahydropyrrolo[3,4-c]pyrrol-2(1H)-yl)-1,3,4-thiadiazole]	2570 nM	2.17 fold
COc1cc(-n2cccn2)ccc1-c1nnc(N(C)C2CC(C)(C)NC(C)(C)C2)s1 [Example 1, 5-(2-methoxy-4-(1H-pyrazol-1-yl)phenyl)-N-methyl-N-(2,2,6,6-tetramethylpiperidin-4-yl)-1,3,4-thiadiazol-2-amine]	63 nM	2.45 fold
CN(c1nnc(-c2cc3ccccc3cc2O)s1)C1CC(C)(C)NC(C)(C)C1 [Example 22, 3-(5-(Methyl(2,2,6,6-tetramethylpiperidin-4-yl)amino)-1,3,4-thiadiazol-2-yl)naphthalen-2-ol.HBr]	253 nM	2.70 fold
CNc1ccn(-c2ccc(-c3nnc(N(C)C4CC(C)(C)NC(C)(C)C4)s3)c(OC)c2)n1 [Example 36, 5-(2-methoxy-4-(3-(methylamino)-1H-pyrazol-1-yl)phenyl)-N-methyl-N-(2,2,6,6-tetramethyl-piperidin-4-yl)-1,3,4-thiadiazol-2-amine]	163 nM	2.15 fold
COc1cc(-c2ccc(-c3nnc(N(C)C4CC(C)(C)NC(C)(C)C4)s3)c(OC)c2)ccn1 [Example 77, 5-(2-methoxy-4-(2-methoxypyridin-4-yl)phenyl)-N-methyl-N-(2,2,6,6-tetramethyl-piperidin-4-yl)-1,3,4-thiadiazol-2-amine]	52 nM	3.33 fold
COc1cc(-c2sc(C)nc2C)ccc1-c1nnc(N(C)C2CC(C)(C)NC(C)(C)C2)s1 [Example 74, 5-(4-(2,4-dimethylthiazol-5-yl)-2-methoxyphenyl)-N-methyl-N-(2,2,6,6-tetramethylpiperidin-4-yl)-1,3,4-thiadiazol-2-amine]	85 nM	2.64 fold
Cc1cc(-c2ccc(-c3nnc(N(C)C4CC(C)(C)NC(C)(C)C4)s3)c(F)c2)[nH]n1 [Example 46, 5-(2-fluoro-4-(3-methyl-1H-pyrazol-5-yl)phenyl)-N-methyl-N-(2,2,6,6-tetramethylpiperidin-4-yl)-1,3,4-thiadiazol-2-amine]	122 nM	2.32 fold
CN(c1nnc(-c2cc3ccccc3nc2O)s1)C1CC(C)(C)NC(C)(C)C1 [Example 23, 3-(5-(Methyl(2,2,6,6-tetramethylpiperidin-4-yl)amino)-1,3,4-thiadiazol-2-yl)quinolin-2-ol]	231 nM	2.66 fold
COc1cc2nc(C#N)ccc2cc1-c1nnc(N(C)C2CC(C)(C)NC(C)(C)C2)s1 [Example 37, 7-methoxy-6-(5-(methyl(2,2,6,6-tetramethyl-piperidin-4-yl)amino)-1,3,4-thiadiazol-2-yl) quinoline-2-carbonitrile]	78 nM	2.19 fold
CN(c1nnc(-c2ccc(-c3cn[nH]c3)cc2O)s1)C1CC(C)(C)NC(C)(C)C1 [Example 93, 2-(5-(methyl(2,2,6,6-tetramethylpiperidin-4-yl)amino)-1,3,4-thiadiazol-2-yl)-5-(1H-pyrazol-4-yl)phenol]	404 nM	2.47 fold
Cn1cc(-c2ccc(-c3nnc(N4CC5(CCNCC5)C4)s3)c(O)c2)cn1 [Example 95, 2-(5-(2,7-diazaspiro[3.5]nonan-2-yl)-1,3,4-thiadiazol-2-yl)-5-(1-methyl-1H-pyrazol-4-yl)phenol]	53 nM	2.44 fold
